From patent US6924302B2, “Substituted triazole diamine derivatives as kinase inhibitors” (Ortho McNeil Pharmaceutical, Inc., priority 2000, dated 2005)
Where two headings read alike, the source gives them in different places.

What was measured:
Insulin Receptor Kinase = Insulin Receptor Kinase (Homo sapiens, UniProt P06213); experiment: Kinase Selectivity Assay Insulin Receptor Kinase; assay type: biochemical; conditions: Kinase Selectivity, Tables 2a-2k; read-out: Insulin R Kinase IC50
Summary of the method: (§1)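 Radiometric Flashplate format: ^33P-γ-ATP transfer to immobilized biotinylated peptide, 1 h, 30° C, 1% DMSO final, enzyme in 50 mM Tris-HCl pH=8.0 + 0.1% BSA. Duplicate 8-point dilution, 100 uM down to 10 pM. IC50 from % inhibition of plate max signal versus log conc.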

[1] = biological target: T1, Casein Kinase 2 (alpha and beta subunits) (Homo sapiens, UniProt P68400); experiment: Kinase Selectivity Assay Casein Kinase 2; assay type: biochemical; conditions: Kinase Selectivity, Tables 2a-2k; read-out: Caseine Kinase 2 IC50
T1 construct: purchased New England Biolabs 6010; host or cells: E. coli
Summary of the method: as §1

[2] = biological target: T2, Calmodulin Kinase (calmodulin-dependent protein kinase 2) (Rattus norvegicus, UniProt P11275); experiment: Kinase Selectivity Assay Calmodulin Kinase; assay type: biochemical; conditions: Kinase Selectivity, Tables 2a-2k; read-out: Calmodulin Kinase 2 IC50
T2 construct: a truncated version of the alpha subunit of the rat protein; purchased New England Biolabs 6060; host or cells: insect cells
Summary of the method: as §1

[3] = biological target: T3, Glycogen Synthase Kinase-3 (beta isoform) (Oryctolagus cuniculus, UniProt G1T8E2); experiment: Kinase Selectivity Assay Glycogen Synthase Kinase-3; assay type: biochemical, rabbit
T3 construct: purchased New England Biolabs 6040; host or cells: E. coli
Summary of the method: as §1

[4] = test system: HeLa cervical adenocarcinoma; experiment: Inhibition of Cell Proliferation (14C-thymidine incorporation), HeLa; assay type: cell-based; conditions: Homo sapiens, HeLa cell line
Experimental: (§2) The ability of a test compound to inhibit the proliferation of cell growth was determined by measuring incorporation of ^14C-labelled thymidine into newly synthesized DNA within the cells. This method was used on cell lines derived from carcinomas originating from several tissues such as HeLa cervical adenocarcinoma (American Type Culture Collection (ATCC), Virginia, Cat. #CCL-2), A375 malignant melanoma (ATCC CRL-1619), SK-OV-3 ovarian adenocarcinoma (ATCC HTB-77) HCT-116 colon carcinoma (CCL-247), PC-3 prostate adenocarcinoma (ATCC CRL-1435), and MDA-MB-231 (Xenogen Corp.) In this way the effect of a compound on cell growth of cells with many different phenotypes can be determined. Cells were trypsinized and counted and 3000-8000 cells were added to each well of a 96-well CytoStar tissue culture treated scintillating microplate (Amersham #RPNQ0160) in complete medium in a volume of 100 μl. Cells were incubated for 24 hours in complete medium at 37° C. in an atmosphere containing 5% CO2. Next, 1 μl of test compound in 100% DMSO was added to the wells of the plate. DMSO only was added to control wells. Cells were incubated for 24 more hours in complete medium at 37° C. in an atmosphere containing 5% CO2. Methyl ^14C-thymidine 56 mCi/mmol (NEN #NEC568 or Amersham #CFA532) was diluted in complete medium and 0.2 uCi/well was added to each well of the CytoStar plate in a volume of 20 μl. The plate was incubated for 24 hours at 37° C. plus 5% CO2 in drug plus ^14C-thymidine. The contents of the plate were discarded into a ^14C radioactive waste container by inverting the plate and the plate was washed twice with 200 μl PBS. 200 μl of PBS is added to each well. The top of the plate was sealed with a transparent plate sealer and a white plate backing sealer (Packard #6005199) was applied to the bottom of the plate. The degree of methyl ^14C-thymidine incorporation was quantified on a Packard Top Count.

HCT-116 colon carcinoma = experiment: Inhibition of Cell Proliferation (14C-thymidine incorporation), HCT-116; assay type: cell-based; conditions: Homo sapiens, HCT-116 cell line
Experimental: as §2

[5] = biological target: T4, MAP Kinase (ERK-2 isoform) (Rattus norvegicus, UniProt P63086); experiment: Kinase Selectivity Assay MAP Kinase (ERK-2); assay type: biochemical; conditions: Kinase Selectivity, Tables 2a-2k; read-out: ERK 2 IC50
T4 construct: polyhistidine (N); host or cells: E. coli
Summary of the method: as §1

[6] = biological target: T5, PDGF-R (platelet derived growth factor receptor) beta subunit kinase domain (Homo sapiens, UniProt P09619); experiment: Kinase Selectivity Assay PDGF-R; assay type: biochemical; conditions: Kinase Selectivity, Tables 2a-2k; read-out: PDGF-R kinase IC50
T5 construct: nucleotides 1874-3507 of the human PDGF-R beta subunit kinase domain; polyhistidine (N)
Summary of the method: as §1

[7] = Kinase Selectivity, Tables 2a-2k, read-out: GSK-3 IC50

Chain of Insulin Receptor Kinase (P06213 980-1352): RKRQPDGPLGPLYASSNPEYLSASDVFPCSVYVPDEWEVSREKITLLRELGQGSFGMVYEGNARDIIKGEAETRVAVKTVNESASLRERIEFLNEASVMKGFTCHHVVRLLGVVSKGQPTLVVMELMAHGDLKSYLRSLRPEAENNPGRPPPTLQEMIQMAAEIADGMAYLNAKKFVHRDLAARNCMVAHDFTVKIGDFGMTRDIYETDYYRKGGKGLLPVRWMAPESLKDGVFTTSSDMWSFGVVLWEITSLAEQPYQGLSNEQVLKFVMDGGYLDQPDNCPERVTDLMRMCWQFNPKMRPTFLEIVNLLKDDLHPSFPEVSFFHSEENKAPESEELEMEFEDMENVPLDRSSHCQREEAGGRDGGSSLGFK
T5 sequence (P09619 564-1106): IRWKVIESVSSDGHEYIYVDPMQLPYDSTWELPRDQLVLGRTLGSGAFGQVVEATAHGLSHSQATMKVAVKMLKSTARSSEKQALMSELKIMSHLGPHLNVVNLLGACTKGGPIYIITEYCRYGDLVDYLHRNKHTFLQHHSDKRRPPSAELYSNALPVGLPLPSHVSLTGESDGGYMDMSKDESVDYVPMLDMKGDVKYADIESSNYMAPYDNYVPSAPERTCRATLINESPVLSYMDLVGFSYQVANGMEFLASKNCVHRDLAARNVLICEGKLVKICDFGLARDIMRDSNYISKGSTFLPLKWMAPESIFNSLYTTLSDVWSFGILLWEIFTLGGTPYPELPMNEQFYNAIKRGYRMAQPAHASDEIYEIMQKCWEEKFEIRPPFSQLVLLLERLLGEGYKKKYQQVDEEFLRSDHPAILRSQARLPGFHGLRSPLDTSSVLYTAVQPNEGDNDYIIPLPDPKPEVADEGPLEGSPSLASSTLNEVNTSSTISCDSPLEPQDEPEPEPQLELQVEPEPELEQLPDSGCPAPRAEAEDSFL
T3 sequence (G1T8E2 1-432): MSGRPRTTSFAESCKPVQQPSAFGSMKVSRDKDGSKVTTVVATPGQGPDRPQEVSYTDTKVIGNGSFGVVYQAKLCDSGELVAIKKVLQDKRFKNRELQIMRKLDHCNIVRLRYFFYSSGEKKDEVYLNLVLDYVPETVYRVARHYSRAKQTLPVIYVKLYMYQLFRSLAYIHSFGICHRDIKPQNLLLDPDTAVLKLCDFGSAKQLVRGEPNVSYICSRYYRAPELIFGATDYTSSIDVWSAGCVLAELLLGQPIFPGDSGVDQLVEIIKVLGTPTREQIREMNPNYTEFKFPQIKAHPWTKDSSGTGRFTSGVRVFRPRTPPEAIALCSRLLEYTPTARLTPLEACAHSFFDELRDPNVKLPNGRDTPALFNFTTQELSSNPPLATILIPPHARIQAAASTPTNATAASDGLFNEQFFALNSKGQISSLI
T4 sequence (P63086 whole entry, canonical isoform): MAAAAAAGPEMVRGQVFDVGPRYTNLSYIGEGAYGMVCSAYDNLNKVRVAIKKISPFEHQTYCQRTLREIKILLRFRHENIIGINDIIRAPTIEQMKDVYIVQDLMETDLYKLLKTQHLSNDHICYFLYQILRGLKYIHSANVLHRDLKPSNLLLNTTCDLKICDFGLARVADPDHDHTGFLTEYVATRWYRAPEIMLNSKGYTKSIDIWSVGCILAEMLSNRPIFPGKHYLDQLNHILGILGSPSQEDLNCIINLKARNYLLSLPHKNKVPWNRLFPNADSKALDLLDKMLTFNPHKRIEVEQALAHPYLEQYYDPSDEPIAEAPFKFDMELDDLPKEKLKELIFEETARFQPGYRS
T1 sequence (P68400 whole entry): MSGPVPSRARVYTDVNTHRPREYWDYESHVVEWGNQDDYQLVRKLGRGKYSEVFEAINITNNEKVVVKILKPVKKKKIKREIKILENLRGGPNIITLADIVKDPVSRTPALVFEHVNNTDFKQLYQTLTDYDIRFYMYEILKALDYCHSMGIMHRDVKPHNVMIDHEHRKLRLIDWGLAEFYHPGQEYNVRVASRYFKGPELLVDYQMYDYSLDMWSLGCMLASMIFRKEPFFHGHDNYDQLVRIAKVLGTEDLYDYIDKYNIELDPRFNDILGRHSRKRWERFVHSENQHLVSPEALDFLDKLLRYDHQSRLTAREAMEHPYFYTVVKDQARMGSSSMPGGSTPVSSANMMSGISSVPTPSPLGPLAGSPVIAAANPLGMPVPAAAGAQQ
T1 sequence (P67870 whole entry partner): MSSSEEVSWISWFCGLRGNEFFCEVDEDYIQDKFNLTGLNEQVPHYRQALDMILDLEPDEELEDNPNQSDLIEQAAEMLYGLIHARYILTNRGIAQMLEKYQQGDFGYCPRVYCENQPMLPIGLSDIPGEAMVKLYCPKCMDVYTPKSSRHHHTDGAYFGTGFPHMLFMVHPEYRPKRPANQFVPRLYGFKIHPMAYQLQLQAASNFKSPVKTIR

Compound | IC50 (Insulin Receptor Kinase) [nM] | IC50 [1] [nM] | IC50 [2] [nM] | IC50 [3] [nM] | IC50 [4] [nM] | IC50 (HCT-116 colon carcinoma) [nM] | IC50 [3, 7] [nM] | IC50 [5] [nM] | IC50 [6] [nM]
Nc1nc(Nc2ccc(S(N)(=O)=O)cc2)nn1C(=O)c1c(F)cccc1F [Cpd 1, 4-[[5-amino-1-(2,6-difluorobenzoyl)-1H-1,2,4-triazol-3-yl]amino]-benzenesulfonamide] | > 100000 | > 100000 | > 100000 | 41 | 284 | 254 |  |  | 
Nc1nc(Nc2ccc(S(N)(=O)=O)cc2)nn1C(=O)c1cccs1 [Cpd 14, 4-[[5-amino-1-(2-thienylcarbonyl)-1H-1,2,4-triazol-3-yl]amino]-benzenesulfonamide] | 1200 | 8050 | 60400 |  | 550 | 1940 | 3 | 2140 | 189
Nc1nc(Nc2ccc(S(N)(=O)=O)cc2)nn1C(=O)c1sccc1F [Cpd 16, 4-[[5-amino-1-[(3-fluoro-2-thienyl)carbonyl]-1H-1,2,4-triazol-3-yl]amino]-benzenesulfonamide] | > 100000 | > 100000 | > 100000 |  | 263 | 213 | 4 | 390 | 100
Nc1nc(Nc2ccc(S(N)(=O)=O)cc2)nn1C(=O)c1sccc1Cl [Cpd 17, 4-[[5-amino-1-[(3-chloro-2-thienyl)carbonyl]-1H-1,2,4-triazol-3-yl]amino]-benzenesulfonamide] | 2020 | 2650 | 2800 |  | 215 | 309 | 9 | 1870 | 81
Nc1nc(Nc2ccc(S(=O)(=O)N3CCCCC3)cc2)nn1C(=O)c1cccs1 [Cpd 23, N^3-[4-(1-piperidinylsulfonyl)phenyl]-1-(2-thienylcarbonyl)-1H-1,2,4-triazole-3,5-diamine] | > 100000 | > 100000 | 10500 |  | 1180 | 376 | 16 | 1620 | 629
Nc1nc(Nc2ccc(S(N)(=O)=O)cc2)nn1C(=O)c1ccsc1 [Cpd 30, 4-[[5-amino-1-(3-thienylcarbonyl)-1H-1,2,4-triazol-3-yl]amino]-benzenesulfonamide] | 4960 | 7600 | 88300 |  | 215 | 1930 | 14 | 5930 | 392
CCc1ccc(C(=O)n2nc(Nc3ccc(S(N)(=O)=O)cc3)nc2N)s1 [Cpd 32, 4-[[5-amino-1-[(5-ethyl-2-thienyl)carbonyl]-1H-1,2,4-triazol-3-yl]amino]-benzenesulfonamide] | 123 | 527 | > 100000 |  | 71 | 26 | 3 | 563 | 74
Cc1nc(C)c(C(=O)n2nc(Nc3ccc(S(N)(=O)=O)cc3)nc2N)s1 [Cpd 34, 4-[[5-amino-1-[(2,4-dimethyl-5-thiazolyl)carbonyl]-1H-1,2,4-triazol-3-yl]amino]-benzenesulfonamide] | > 10000 | > 100000 | > 100000 |  | 707 | 996 | 15 | > 10000 | 292
Nc1nc(Nc2ccc(S(N)(=O)=O)cc2)nn1C(=O)c1sccc1Br [Cpd 35, 4-[[5-amino-1-[(3-bromo-2-thienyl)carbonyl]-1H-1,2,4-triazol-3-yl]amino]-benzenesulfonamide] |  |  |  |  | 663 | 172 |  |  | 
Nc1nc(Nc2ccc(S(N)(=O)=O)cc2)nn1C(=O)C1CCCC1 [Cpd 38, 4-[[5-amino-1-(cyclopentylcarbonyl)-1H-1,2,4-triazol-3-yl]amino]-benzenesulfonamide] | > 100000 | > 100000 | > 100000 |  | 4560 | 2270 | 122 | 24200 | 6370
Nc1nc(Nc2ccc(S(N)(=O)=O)cc2)nn1C(=O)C1CCCCC1 [Cpd 39, 4-[[5-amino-1-(cyclohexylcarbonyl)-1H-1,2,4-triazol-3-yl]amino]-benzenesulfonamide] | 19400 | > 100000 | > 100000 |  | 270 | 1410 | 127 | 13200 | 3980
CC(C)(C)c1ccc(C(=O)n2nc(Nc3ccc(S(N)(=O)=O)cc3)nc2N)s1 [Cpd 51, 4-[[5-amino-1-[[5-(1,1-dimethylethyl)-2-thienyl]carbonyl]-1H-1,2,4-triazol-3-yl]amino]-benzenesulfonamide] | 77 | 1780 | 813 |  | 220 |  | 20 | 928 | 199
Cc1ccccc1C(=O)n1nc(Nc2ccc(S(N)(=O)=O)cc2)nc1N [Cpd 57, 4-[[5-amino-1-(2-methylbenzoyl)-1H-1,2,4-triazol-3-yl]amino]-benzenesulfonamide] | > 100000 | > 100000 | > 100000 |  | 339 | 95 | 98 | > 100000 | 4190
CN1CCN(c2ccc(Nc3nc(N)n(C(=O)c4c(F)cccc4F)n3)cc2)CC1 [Cpd 71, 1-(2,6-difluorobenzoyl)-N^3-[4-(4-methyl-1-piperazinyl)phenyl]-1H-1,2,4-triazole-3,5-diamine] | 35300 | > 100000 | 60900 |  | 1920 |  | 1720 | > 100000 | 27000
CNS(=O)(=O)c1ccc(Nc2nc(N)n(C(=O)c3c(F)cccc3F)n2)cc1 [Cpd 80, 4-[[5-amino-1-(2,6-difluorobenzoyl)-1H-1,2,4-triazol-3-yl]amino]-N-methyl-benzenesulfonamide] |  |  |  |  | 880 |  |  |  | 
CNS(=O)(=O)c1ccc(Nc2nc(N)n(C(=O)c3sccc3C)n2)cc1 [Cpd 82, 4-[[5-amino-1-[(3-methyl-2-thienyl)carbonyl]-1H-1,2,4-triazol-3-yl]amino]-N-methyl-benzenesulfonamide] | 1100 | > 100000 | > 100000 |  | 245 |  | 25 | 1950 | 42
CCc1ccc(C(=O)n2nc(Nc3ccc(S(=O)(=O)NC)cc3)nc2N)s1 [Cpd 84, 4-[[5-amino-1-[(5-ethyl-2-thienyl)carbonyl]-1H-1,2,4-triazol-3-yl]amino]-N-methyl-benzenesulfonamide] | 172 | 1670 | > 100000 |  | 142 |  | 19 | 1220 | 280
Cc1cc(C)c(C(=O)n2nc(Nc3ccc(NS(C)(=O)=O)cc3)nc2N)s1 [Cpd 108, N-[4-[[5-amino-1-[(3,5-dimethyl-2-thienyl)carbonyl]-1H-1,2,4-triazol-3-5 yl]amino]phenyl]-methanesulfonamide] |  | > 10000 | > 10000 |  |  |  | 23 | 2390 | 217
